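Tested at 5 concentrations; 48 h exposure; 96-well plates; endpoints linearly interpolated, else capped at highest concentration. GI50 marks 50% less growth. At the TGI there is no net growth.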
Assays:
Assay in all cases: NCI tumour cell line growth inhibition, 48 h
[1] = system: SN12C renal
[2] = system: SW-620 colon
[3] = system: A549 NSCLC
[4] = system: CAKI-1 renal
[5] = system: RXF 393 renal
[6] = system: MCF7 breast
[7] = system: ACHN renal
[8] = system: NCI-H522 lung

Structure (SMILES)	TGI [1] [µM]	TGI [2] [µM]	TGI [3] [µM]	TGI [4] [µM]	TGI [5] [µM]	TGI [6] [µM]	TGI [7] [µM]	TGI [8] [µM]	GI50 [1] [µM]	GI50 [2] [µM]	GI50 [3] [µM]	GI50 [4] [µM]	GI50 [5] [µM]	GI50 [6] [µM]	GI50 [7] [µM]	GI50 [8] [µM]
C=CCCC1(CC(Sc2ccccc2)P(=O)(c2ccccc2)c2ccccc2)OCCO1 (stereo not drawn)	> 10	> 10	> 10	> 10	> 10	> 10	> 10									
N#Cc1[nH]c(=O)n(-c2ccccc2)c1N	> 10	> 10	> 10		> 10		> 10									
O=C1NC(=S)NC(=O)C1C(c1ccc(O)cc1)C1C(=O)NC(=S)NC1=O	> 100	> 100	> 100	> 100	> 100	> 100	> 100	> 100								
N#CCCC(CCC#N)(CCC#N)NO	> 100	> 100	> 100	> 100	> 100	> 100	> 100	46.1								
CCCCC1Cc2ccccc2-c2nc3ccccc3n21 (stereo not drawn)		33.9		31.9	34.5	32.9	31	26.5								
CC(C)=CCC(O)[C@](C)(O)[C@H]1[C@H](O)C[C@@]2(C)[C@@H]3CCc4cc(O)c(OC5OC(CO)C(O)C(O)C5O)cc4C3(C)C(=O)C[C@]12C (stereo partly drawn)	> 100	> 100	> 100	> 100	> 100	> 100	> 100	> 100								
C[C@@H](c1ccccc1)n1c(N)c(C#N)c2ccc([N+](=O)[O-])cc2c1=O	28.4	48.3	> 100	39.3			29.5									
O=[N+]([O-])c1ccc(S(=O)(=O)n2c3ccc(Br)cc3c3nc4ccccc4nc32)cc1	> 100	> 100	> 100	> 100	> 100		> 100	> 100								
Cc1ccc2c(c1)CC1(Cc3ccccc3C1=O)C2=O (stereo not drawn)	> 100	> 100	> 100		> 100	> 100	> 100	> 100								
N#C/C(=C/NC(N)=S)C(N)=O	> 100	> 100	> 100	> 100	> 100	> 100	> 100									
COCc1nc2c(OC)c(-c3nc4nc(N5CCN(C)CC5)ccc4[nH]3)cc(OC)c2n1C	> 100	> 100	> 100	> 100	57.6		57.4	86.4								
CN(C(=O)Cc1cccc(N=C=S)c1)[C@H]1CCCC[C@@H]1N1CCCC1	29.5	36.2	33.9	29.5	25.9	27.5	27.2	27.6								
O=C1CC(c2cccc([N+](=O)[O-])c2)C2(C(=O)NC(=O)NC2=O)C(c2cccc([N+](=O)[O-])c2)C1 (stereo not drawn)	> 100	> 100	> 100		61.1	44	> 100	> 100								
O=C(NC(Cc1ccccc1)(Cc1ccc(O)cn1)C(=O)O)c1ccccc1 (stereo not drawn)		> 100	> 100	> 100	> 100		> 100	> 100								
CCOC(=O)c1c(N2CCOCC2)[nH]c(=O)c(C(c2c(Cl)cccc2Cl)c2c(O)c(C(=O)OCC)c(N3CCOCC3)[nH]c2=O)c1O	11.4	3.11	32.5	5.24	4.93	6.63	13	3.72								
CCO/C=N\C1=C(C#N)SC2=N/C(=C\c3ccc(OC)cc3)C(=O)N21	> 100	> 100	> 100	> 100	> 100	> 100	> 100	> 100								
CC(=O)OC1C(Oc2c(C)cc3c(c2O)[C@@H](C)CC[C@@H]3[C@@H](C)CCC=C(C)C)OCC(O)C1O (stereo partly drawn)	32.2	33.8	30.2	36		42.5	35.5	36.4								
CO/C=C(/C(=O)OC)c1ccccc1COc1cccc(C(F)(F)F)c1	> 100		> 100	53.9	78.3	> 100	> 100	5.86								
Cc1ccc2c3c1O[C@H]1c4[nH]c5ccccc5c4C[C@@]4(O)[C@@H](C2)N(CC2CC2)CC[C@]314	29.1	25.4	29.7	30.4	20.8	31.5	30.9	29.5								
C[N+]1(C)CCc2cc(O)c(O)cc2C1Cc1ccc(O)c(O)c1 (stereo not drawn)	> 100	76.7	> 100	> 100	> 100	43.3	> 100	58.4								
O=C(NCP(=O)(c1ccccc1)c1ccccc1)OCc1ccccc1	> 100	> 100	> 100	> 100	> 100	> 100	> 100	> 100								
NNC(=S)N/N=C(/C(=O)Nc1ccc(Cl)c(Cl)c1)C(C1OC(=O)c2ccccc21)[N+](=O)[O-] (stereo not drawn)	> 100	> 100	> 100	> 100	> 100	> 100	> 100	> 100								
COC(=O)C1=CS/C(=C2\S[C@@H]3[C@H](S2)[C@H]2C=C[C@@H]3C2)S1	> 100	> 100	> 100	> 100	> 100	> 100										
Cc1ccc([N+](=O)[O-])c2c(NCCC[N+](C)(C)[O-])c3ccccc3nc12	8.74	> 72.6	6.29	97	3.02	7.66	47.7									
Cc1ccc(S(=O)(=O)N/N=C2/CCCOC2)cc1	> 100	> 100	> 100	> 100	> 100	> 100	> 100	> 100								
O=c1cc(N2CCCC2)[nH]c(=O)n1-c1cccc(Cl)c1	> 100	> 100		> 100	> 100	> 100	> 100	> 100								

Structure (SMILES)	TGI [1] [µM]	TGI [2] [µM]	TGI [3] [µM]	TGI [4] [µM]	TGI [5] [µM]	TGI [6] [µM]	TGI [7] [µM]	TGI [8] [µM]	GI50 [1] [µM]	GI50 [2] [µM]	GI50 [3] [µM]	GI50 [4] [µM]	GI50 [5] [µM]	GI50 [6] [µM]	GI50 [7] [µM]	GI50 [8] [µM]
COc1ccccc1CNCCCN1C(=O)c2ccc3c4c(ccc(c24)C1=O)C(=O)N(CCCNCCNCCCN)C3=O	8.07	8.91	13.1	> 100	7.12	2.22	79.8	3.71	2.09	1.74	3.01	21.7	1.65	0.422	4.45	1.22
COc1cc(Br)cc2cc(-c3cn4c(n3)sc3ccccc34)c(=O)oc12	> 75	> 75	> 75	> 75		> 75	> 75	28.7								
CC1(C)OC(=O)N(c2ccccc2)C12C=Cc1cc([N+](=O)[O-])ccc1O2 (stereo not drawn)	> 100	> 100	> 100	> 100	> 100		> 100	> 100								
CCOC(C)O[C@H]1C(=O)OCC1(C)C (stereo partly drawn)		> 100	> 100	> 100	> 100	> 100	> 100									
COC(=O)Nc1nc2ccc(S(=O)(=O)SC)cc2[nH]1	37.1	25.2	> 100	> 100	17.9	27	23.9	> 100								
Cn1c([C@H](C#N)c2ncccc2[N+](=O)[O-])nc2ccccc21		> 100	> 100	> 100	97.7	> 100	> 100	38.3								
Nc1ccc(Cc2c(N)[nH]c(=O)[nH]c2=O)cc1	> 100	> 100	> 100	> 100		> 100	> 100	> 100								
CC(=O)[C@@H](C)C(=O)N1C(=O)OC[C@@]12[C@@H]1CC[C@@H](C1)C2(C)C	> 100	> 100	> 100	> 100	> 100	> 100	> 100	> 100								
CC1S/C(=N\N=C2/C(=O)Nc3ccc(Br)cc32)N(C2CCCCC2)C1=O (stereo not drawn)	12.3	46.3	12.6	6.39	14.9	35	3.24									
C/C(=N/NC(N)=S)c1ccc[nH]1	> 100	> 100	> 100	> 100	> 100	> 100	> 100	> 100								
CCc1cc(Cc2cc(CC)c(NC(=O)C(=O)CC(=O)c3sc(-c4cccnc4)nc3C)c(CC)c2)cc(CC)c1NC(=O)C(=O)CC(=O)c1sc(-c2cccnc2)nc1C	> 100	> 100	> 100		> 100	> 100	> 100	> 100								
O=C(N/N=C\C=C\c1ccc([N+](=O)[O-])o1)C(=O)N/N=C\C=C\c1ccc([N+](=O)[O-])o1	> 100	58.8	> 100	> 100	> 100	> 100	> 100	> 100								
c1ccc(CNc2nncc3[nH]cnc23)cc1	> 100	> 100	> 100	> 100		> 100	> 100	> 100								
CCOC(=O)c1cn2c(n1)sc1cc(Cl)ccc12	> 100	> 100	> 100	> 100	> 100	> 100	> 100	> 100								
CCC(=O)Oc1ccc2c(c1)c(=O)c1c(NCCCN(C)C)ccc3nnn2c31	15.3	13.5	13.4	14.3	15.5	12.7	12.7	9.06								
C(/C=C/Nc1ccc(Oc2ccccc2)cc1)=Nc1ccc(Oc2ccccc2)cc1	27.9	34.6	42	32.7	39.6	31.1	50.9	37.7								
CC(C)OC(=O)/C=C/C(=O)O/C=C/[N+](=O)[O-]		> 100	> 100	> 100	44	54.9	> 100									
CC(=O)Oc1ccc2cc(-c3ccccc3OC(C)=O)c(=O)oc2c1	> 100	> 100	> 100			> 100	> 100	17.9								
CCOC(=O)Cc1nc2cc(F)c(F)cc2[nH]c1=O	> 100	> 100	> 100	> 100	> 100	> 100	> 100									
CC1(C)C[C@@H]2C1CCC1(C)CC2(O)CC[C@H]1O (stereo partly drawn)	> 100	> 100	> 100	> 100		> 100	> 100	> 100								
Nc1nc(-[n+]2ccc(-c3ccncc3)cc2)nc(Cl)c1Cl	42.5	> 100	> 100		32.8	21.8	> 100									
CC(=O)O[C@H]1C(=O)[C@@]2(C)[C@H]([C@H](OC(=O)c3ccoc3)[C@]3(O)C[C@H](OC(=O)[C@H](O)[C@@H](NC(=O)c4ccccc4)c4ccccc4)C(C)=C1C3(C)C)[C@]1(OC(C)=O)CO[C@@H]1C[C@@H]2O	> 12.5	> 12.5	> 12.5	> 12.5	> 11.8	> 12.5	> 12.5									
CCCc1c(O)nc(Nc2nc3ccccc3[nH]2)[nH]c1=O	> 100	> 100	> 100	> 100	> 100		> 100	> 100								
CCOC(=O)C1C(=O)CC1(C)C (stereo not drawn)	> 10	> 10	> 10	> 10	> 10	> 10	> 10									
O=c1c2ccccc2nc(Cc2nc(-c3ccc(Cl)cc3)cs2)n1-c1ccc(Cl)cc1		> 100	> 100	> 100	> 100	> 100	> 100	> 100								

Source: PubChem BioAssay (NCI)
